Measurements reported in patent US5705487A, “Antithrombotic agents” (priority 1995, dated 1998).
Structures can show the parent of a compound that is named as a salt.

Columns and labels:
Format in all cases: biochemical
Bovine trypsin = target: T1, Bovine trypsin (Bos taurus, UniProt P00760); assay: Kass, trypsin chromogenic substrate assay; settings: substrate N-Benzoyl-Phe-Val-Arg-p-nitroanilide
T1 construct: Bovine trypsin is purchased from Worthington Biochemicals; purchased Worthington Biochemicals, Freehold, N.J
T1 sequence (P00760 24-246): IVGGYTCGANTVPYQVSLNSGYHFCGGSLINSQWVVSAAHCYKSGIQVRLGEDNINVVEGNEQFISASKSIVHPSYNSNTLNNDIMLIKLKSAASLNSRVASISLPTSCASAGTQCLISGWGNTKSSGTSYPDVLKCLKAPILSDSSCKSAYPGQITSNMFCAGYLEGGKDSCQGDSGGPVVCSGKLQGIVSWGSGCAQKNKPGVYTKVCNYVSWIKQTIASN
Description: (§2) By substantially following the procedures described above for human thrombin, and using other human blood coagulation system serine proteases and proteases of the fibrinolytic system with the appropriate chromogenic substrates, identified below, selectivity of the compounds of the present invention with respect to the coagulation factor serine proteases and with respect to the fibrinolytic system serine proteases are evaluated as well as their substantial lack of interference with serine proteases of the fibrinolytic system.
(§3) Chromogenic substrates: N-Benzoyl-Ile-Glu-Gly-Arg-p-nitroanilide (for factor Xa); N-Cbz-D-Arg-Gly-Arg-p-nitroanilide (for factor IXa assay as the factor Xa substrate); Pyroglutamyl-Pro-Arg-p-nitroanilide (for Factor XIa and for aPC); H-D-Pro-Phe-Arg-p-nitroanilide (for factor XIIa); and Pyroglutamyl-Gly-Arg-p-nitroanilide (for urokinase); are purchased from KabiVirum, Stockholm, Sweden, or from Midwest Biotech, Fishers, Ind. Bovine trypsin is purchased from Worthington Biochemicals, Freehold, N.J., and human plasma kallikrein from Kabi Vitrum, Stockholm, Sweden. […] N-Benzoyl-Phe-Val-Arg-p-nitroanilide, the substrate for human thrombin and for trypsin, is synthesized according to procedures described above for the compounds of the present invention, using known methods of peptide coupling from commercially available reactants or purchased from Midwest Biotech, Fishers, Ind.

Human plasmin = target: T2, Human plasmin (Homo sapiens, UniProt P00747); assay: Kass, plasmin chromogenic substrate assay; settings: substrate H-D-Val-Leu-Lys-p-nitroanilide
T2 construct: Human plasmin is purchased from Boehringer Mannheim; purchased Boehringer Mannheim, Indianapolis, Ind
T2 sequence (P00747 581-810 limits assumed): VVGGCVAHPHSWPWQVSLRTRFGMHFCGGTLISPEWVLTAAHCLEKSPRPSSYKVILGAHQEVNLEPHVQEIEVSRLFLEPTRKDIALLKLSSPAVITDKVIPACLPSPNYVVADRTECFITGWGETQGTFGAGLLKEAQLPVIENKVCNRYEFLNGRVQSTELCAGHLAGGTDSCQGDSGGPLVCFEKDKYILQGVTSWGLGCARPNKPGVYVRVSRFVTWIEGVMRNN
T2 sequence (P00747 97-580 partner limits assumed): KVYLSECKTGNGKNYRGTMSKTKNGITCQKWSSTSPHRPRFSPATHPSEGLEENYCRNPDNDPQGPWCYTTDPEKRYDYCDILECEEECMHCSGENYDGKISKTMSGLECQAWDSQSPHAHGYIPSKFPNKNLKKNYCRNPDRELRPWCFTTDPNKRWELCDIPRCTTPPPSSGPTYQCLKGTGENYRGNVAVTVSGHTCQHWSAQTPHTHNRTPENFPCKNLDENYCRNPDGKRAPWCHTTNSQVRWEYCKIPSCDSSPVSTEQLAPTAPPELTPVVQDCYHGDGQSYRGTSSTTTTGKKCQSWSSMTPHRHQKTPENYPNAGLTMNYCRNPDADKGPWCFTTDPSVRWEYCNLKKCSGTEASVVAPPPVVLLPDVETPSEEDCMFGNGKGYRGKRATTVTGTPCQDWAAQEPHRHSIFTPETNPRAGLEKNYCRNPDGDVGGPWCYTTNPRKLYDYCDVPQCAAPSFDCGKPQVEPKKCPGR
Description: as §2
(§4) Human plasmin is purchased from Boehringer Mannheim, Indianapolis, Ind.; nt-PA is purchased as single chain activity reference from American Diagnostica, Greenwich, Conn.; modified-t-PA6 (mt-PA6) is prepared at Eli Lilly and Company by procedure known in the art (See, Burck, et al., J. Biol. Chem., 265, 5120-5177 (1990). Plasmin chromogenic substrate H-D-Val-Leu-Lys-p-nitroanilide and tissue plasminogen activator (t-PA) substrate H-D-Ile-Pro-Arg-p-nitroanilide are purchased from Kabi Vitrum, Stockholm, Sweden.

Human Plasma [1] = assay: Human plasma anticoagulation, prothrombin time (PT); settings: concentration required to double the clotting time
In short: (§1)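 Values are concentrations estimated by linear extrapolation to double the clotting time in human plasma containing test compound across a wide range. Thrombin time was triggered with bovine thrombin at 10 NIH units/mL plus saline, and prothrombin time with Thromboplastin-C plus saline. For APTT, plasma sat with Actin reagent for 120 seconds before 0.02M CaCl2.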

Human Thrombin = Human Thrombin (Homo sapiens, UniProt P00734); assay: Inhibition of the amidase activity of thrombin (Kass); settings: chromogenic substrate N-benzoyl-Phe-Val-Arg-p-nitroanilide; mean over range of concentrations
Description: The 150 μL of an aqueous solution of the chromogenic substrate (at 0.25 mg/mL) are added and the rates of hydrolysis of the substrate are measured by monitoring the reactions at 405 nm for the release of p-nitroaniline. Standard curves are constructed by plotting free thrombin concentration against hydrolysis rate. […] The amount of free inhibitor in each assay is calculated by subtracting the number of moles of bound thrombin from the number of moles of added inhibitor (test compound).
The Kass value is the hypothetical equilibrium constant for the reaction between thrombin and the test compound (I).
Kass is calculated for a range of concentrations of test compounds and the mean value is reported in units of liter per mole.

t-PA = target: T3, t-PA (Homo sapiens, UniProt P00750); assay: Kass, t-PA chromogenic substrate assay; settings: substrate H-D-Ile-Pro-Arg-p-nitroanilide
T3 construct: purchased American Diagnostica, Greenwich, Conn
T3 sequence (P00750 36-562): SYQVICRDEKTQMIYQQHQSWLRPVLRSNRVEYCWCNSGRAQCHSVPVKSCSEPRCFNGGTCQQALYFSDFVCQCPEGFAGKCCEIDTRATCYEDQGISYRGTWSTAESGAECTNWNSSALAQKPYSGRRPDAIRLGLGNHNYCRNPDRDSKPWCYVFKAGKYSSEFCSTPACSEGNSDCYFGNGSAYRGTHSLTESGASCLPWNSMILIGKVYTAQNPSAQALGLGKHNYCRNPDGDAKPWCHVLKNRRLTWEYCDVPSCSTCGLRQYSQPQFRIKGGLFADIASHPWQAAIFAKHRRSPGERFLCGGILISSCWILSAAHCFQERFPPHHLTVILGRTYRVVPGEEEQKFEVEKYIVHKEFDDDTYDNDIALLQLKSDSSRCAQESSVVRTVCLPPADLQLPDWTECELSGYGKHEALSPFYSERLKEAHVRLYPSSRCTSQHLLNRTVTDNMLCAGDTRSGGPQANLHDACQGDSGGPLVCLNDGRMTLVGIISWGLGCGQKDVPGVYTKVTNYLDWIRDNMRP
Description: as §2, §4

Human Plasma [2] = assay: Human plasma anticoagulation, activated partial thromboplastin time (APTT); settings: concentration required to double the clotting time
In short: as §1

Human Plasma [3] = assay: Human plasma anticoagulation, thrombin time (TT); settings: concentration required to double the clotting time
In short: as §1

factor Xa = target: T4, factor Xa (Homo sapiens, UniProt P00742); assay: Kass, factor Xa chromogenic substrate assay; settings: substrate N-Benzoyl-Ile-Glu-Gly-Arg-p-nitroanilide
T4 construct: Human factors X, Xa, IXa, XIa, and XIIa are purchased; purchased Enzyme Research Laboratories, South Bend, Ind
T4 sequence (P00742 235-488 limits assumed): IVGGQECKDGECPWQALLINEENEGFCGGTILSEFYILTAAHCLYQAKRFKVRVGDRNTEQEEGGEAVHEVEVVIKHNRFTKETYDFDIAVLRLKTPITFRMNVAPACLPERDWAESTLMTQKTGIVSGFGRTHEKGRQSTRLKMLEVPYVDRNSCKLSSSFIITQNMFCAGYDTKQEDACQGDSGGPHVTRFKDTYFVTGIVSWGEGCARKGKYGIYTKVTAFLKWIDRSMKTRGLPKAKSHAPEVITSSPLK
T4 sequence (P00742 41-179 partner limits assumed): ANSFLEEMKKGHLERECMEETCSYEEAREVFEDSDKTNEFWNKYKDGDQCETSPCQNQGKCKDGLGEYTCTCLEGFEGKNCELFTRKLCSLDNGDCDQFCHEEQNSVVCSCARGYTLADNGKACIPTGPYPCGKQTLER
Description: as §2, §3

| Molecule | Kass × 10^6 (L/mole) Trypsin (Bovine trypsin) | Kass × 10^6 (L/mole) Plasmin (Human plasmin) | Human Plasma Anticoagulation 2x Clotting time PT (Human Plasma [1]) | Kass × 10^6 (L/mole) Human Thrombin (Human Thrombin) | Kass × 10^6 (L/mole) t-PA (t-PA) | Human Plasma Anticoagulation 2x Clotting time APTT (Human Plasma [2]) | Human Plasma Anticoagulation 2x Clotting time TT (Human Plasma [3]) | Kass × 10^6 (L/mole) Xa (factor Xa) |
| --- | --- | --- | --- | --- | --- | --- | --- | --- |
| N=C(N)c1cccc(CNC(=O)[C@@H]2CCCN2C(=O)[C@@H]2NCC[C@@H]3CCCC[C@@H]32)c1 [Example 25, D-1-Piq-Pro-m-NHCH2 -C6 H4 C(=NH)NH2.HCl] | 0.01 × 10^6 L/mole | < 0.001 × 10^6 L/mole | 40,400 ng/mL | 0.43 × 10^6 L/mole | 0.01 × 10^6 L/mole | 34,600 ng/mL | 1,430 ng/mL | < 0.001 × 10^6 L/mole |
| Cl.Cl.N=C(N)c1ccc(CNC(=O)C2CC3CCCCC3N2C(=O)C2NCCC3CCCCC32)cc1 [Example 42, D-1-Piq-cis-Ohi-p-NHCH2 C6 H4 C(NH)NH2.2HCl] | 43. × 10^6 L/mole | 0.12 × 10^6 L/mole | 320 ng/mL | 38. × 10^6 L/mole | 0.01 × 10^6 L/mole | 270 ng/mL | 20 ng/mL | 0.07 × 10^6 L/mole |
| N=C(N)c1cccc(CCCNC(=O)[C@@H]2CCCN2C(=O)[C@@H]2NCC[C@@H]3CCCC[C@@H]32)c1 [Example 33, 1-Piq-Pro-m-NHCH2 CH2 CH2 -C6 H4 C(=NH)NH2.HCl] | 0.02 × 10^6 L/mole | < 0.001 × 10^6 L/mole | 70,900 ng/mL | 0.04 × 10^6 L/mole | < 0.001 × 10^6 L/mole | 59,300 ng/mL | 18,900 ng/mL | 0.04 × 10^6 L/mole |
| CCS(=O)(=O)N[C@H](Cc1ccccc1)C(=O)N1CCC[C@H]1C(=O)NCc1ccc(NC(=N)N)cc1 [Example 34, EtSO2 -D-Phe-Pro-p-NHCH2 C6 H4 NHC(NH)NH2.HCl] | 0.49 × 10^6 L/mole | 0.01 × 10^6 L/mole | 5,500 ng/mL | 0.65 × 10^6 L/mole | 0.01 × 10^6 L/mole | 4,900 ng/mL | 530 ng/mL | < 0.001 × 10^6 L/mole |
| Cl.N=C(N)c1ccc(CNC(=O)[C@@H]2CCCN2C(=O)[C@@H](CC2CCCCC2)NCCC(=O)O)cc1 [Example 52, HOOCCH2 CH2 -D-Cha-Pro-p-NHCH2 C6 H4 C(NH)NH2.HCl] | 47. × 10^6 L/mole | 0.11 × 10^6 L/mole | 170 ng/mL | 700 × 10^6 L/mole | 0.01 × 10^6 L/mole | 80 ng/mL | 6 ng/mL | 0.46 × 10^6 L/mole |
| N=C(N)c1cccc(CCNC(=O)[C@@H]2CCCN2C(=O)[C@@H]2NCC[C@@H]3CCCC[C@@H]32)c1 [Example 29, 1-Piq-Pro-m-NHCH2 CH2 -C6 H4 C(=NH)NH2.2HCl] | 0.02 × 10^6 L/mole | < 0.001 × 10^6 L/mole | 15,800 ng/mL | 0.76 × 10^6 L/mole | < 0.001 × 10^6 L/mole | 9,800 ng/mL | 750 ng/mL | 0.02 × 10^6 L/mole |
| N=C(N)c1ccc(CNC(=O)[C@@H]2C[C@@H]3CCCC[C@@H]3N2C(=O)[C@H]2C[C@H]3CCCC[C@H]3CN2)cc1 (relative stereo) [Example 43, D-3-Piq-cis-Ohi-p-NHCH2 C6 H4 C(NH)NH2.2HCl] | 100. × 10^6 L/mole | 0.30 × 10^6 L/mole | 930 ng/mL | 1.4 × 10^6 L/mole | 0.01 × 10^6 L/mole | 1,100 ng/mL | 280 ng/mL | 0.05 × 10^6 L/mole |
| EtSO2 -D-Phe-Pro-p-NHCH2 CH2 C6 H4 CNH(NH)NH2.HCl [Example 35] | 0.04 × 10^6 L/mole | < 0.001 × 10^6 L/mole | 78,400 ng/mL | 0.09 × 10^6 L/mole | < 0.001 × 10^6 L/mole | 50,400 ng/mL | 4,500 ng/mL | < 0.001 × 10^6 L/mole |
| CCS(=O)(=O)N[C@H](Cc1ccccc1)C(=O)N1CCC[C@H]1C(=O)NCCc1ccc(C(=N)N)cc1 [Example 26, EtSO2 -D-Phe-Pro-p-NHCH2 CH2 -C6 H4 C(=NH)NH2.HCl] | 0.21 × 10^6 L/mole | 0.01 × 10^6 L/mole | 750 ng/mL | 13. × 10^6 L/mole | 0.01 × 10^6 L/mole | 870 ng/mL | 37 ng/mL | 0.01 × 10^6 L/mole |
| CCS(=O)(=O)N[C@H](Cc1ccccc1)C(=O)N1CCC[C@H]1C(=O)NCCc1cccc(C(=N)N)c1.Cl [Example 27, EtSO2 -D-Phe-Pro-m-NHCH2 CH2 -C6 H4 C(=NH)NH2.HCl] | 0.02 × 10^6 L/mole | < 0.001 × 10^6 L/mole | 27,000 ng/mL | 0.29 × 10^6 L/mole | 0.02 × 10^6 L/mole | 27,800 ng/mL | 1,940 ng/mL | 0.02 × 10^6 L/mole |
| Cl.O=C(O)CN[C@H](CC1CCCCC1)C(=O)N1CCC[C@H]1C(=O)NCCC1=CCNCC1 [Example 59, HO2 CCH2 -D-Cha-Pro-4-NHCH2 CH2 -3,4-dehydro-piperidine.HCl] | 0.21 × 10^6 L/mole | < 0.001 × 10^6 L/mole | 7,000 ng/mL | 1.10 × 10^6 L/mole | < 0.001 × 10^6 L/mole | 5,500 ng/mL | 420 ng/mL | < 0.001 × 10^6 L/mole |
| O=C(O)CN[C@H](CC1CCCCC1)C(=O)N1CCC[C@H]1C(=O)NCCCC1CCNCC1 [Example 55, HO2 CCH2 -D-Cha-Pro-4-NHCH2 CH2 CH2 -piperidine.HCl] | 0.01 × 10^6 L/mole | < 0.001 × 10^6 L/mole | > 91,000 ng/mL | 0.01 × 10^6 L/mole | < 0.001 × 10^6 L/mole | > 91,000 ng/mL | 55,800 ng/mL | < 0.001 × 10^6 L/mole |
| CCS(=O)(=O)N[C@H](Cc1ccccc1)C(=O)N1CCC[C@H]1C(=O)NCCCc1ccc(C(=N)N)cc1 [Example 30, EtSO2 -D-Phe-Pro-p-NHCH2 CH2 CH2 -C6 H4 C(=NH)NH2.HCl] | 0.03 × 10^6 L/mole | < 0.001 × 10^6 L/mole | 14,400 ng/mL | 0.55 × 10^6 L/mole | < 0.001 × 10^6 L/mole | 14,000 ng/mL | 1,000 ng/mL | 0.02 × 10^6 L/mole |
| N=C(N)c1ccc(CNC(=O)[C@@H]2C[C@@H]3CCCC[C@@H]3N2C(=O)[C@@H](Cc2ccccc2)NCC(=O)O)cc1 (relative stereo) [Example 47, HOOCCH2 -D-Phe-cis-Ohi-p-NHCH2 C6 H4 C(NH)NH2.HCl] | 82. × 10^6 L/mole | 0.18 × 10^6 L/mole | 270 ng/mL | 45 × 10^6 L/mole | 0.01 × 10^6 L/mole | 140 ng/mL | 12. ng/mL | 0.04 × 10^6 L/mole |
